Results as given in ChEMBL document CHEMBL4033641, “Design, synthesis and anticancer potential of NSC-319745 hydroxamic acid derivatives as DNMT and HDAC inhibitors” (Eur J Med Chem, 2017).
Active and inactive are the calls of the source. The calls are words filed in the database; no cut-off is given here.

What was measured:
[1] = biological target: DNA (cytosine-5)-methyltransferase 1 (Homo sapiens) (UniProt P26358); assay: Inhibition of DNMT1 (unknown origin) at 100 uM using poly(dI-dC).poly(dI-dC) as substrate preincubated for 15 mins followed by substrate/[3H]-SAM addition measured after 120 mins by liquid scintillation counting analysis
[2] = biological target: DNMT3A2/3L complex (Homo sapiens) (UniProt Q9Y6K1+Q9UJW3); assay: Inhibition of DNMT3A/3L (unknown origin) at 100 uM using biotinylated DNA oligonucleotides as substrate preincubated for 15 mins followed by substrate/[3H]-SAM addition measured after 4 hrs by liquid scintillation counting analysis; type: protein-complex assay
[3] = biological target: DNMT3B-DNMT3L complex (Homo sapiens) (UniProt Q9UBC3+Q9UJW3); assay: Inhibition of DNMT3B/3L (unknown origin) at 100 uM using biotinylated DNA oligonucleotides as substrate preincubated for 15 mins followed by substrate/[3H]-SAM addition measured after 4 hrs by liquid scintillation counting analysis; type: protein-complex assay
Histone deacetylase 1 = Histone deacetylase 1 (Homo sapiens, UniProt Q13547); assay: Inhibition of HDAC1 (unknown origin) preincubated for 15 mins followed by substrate addition measured after 60 mins by fluorescence assay
[4] = biological target: T1, Protein deacetylase HDAC6 (Homo sapiens, UniProt Q9UBN7); assay: Inhibition of HDAC6 (unknown origin) preincubated for 15 mins followed by substrate addition measured after 60 mins by fluorescence assay
T1 sequence (Q9UBN7 whole entry): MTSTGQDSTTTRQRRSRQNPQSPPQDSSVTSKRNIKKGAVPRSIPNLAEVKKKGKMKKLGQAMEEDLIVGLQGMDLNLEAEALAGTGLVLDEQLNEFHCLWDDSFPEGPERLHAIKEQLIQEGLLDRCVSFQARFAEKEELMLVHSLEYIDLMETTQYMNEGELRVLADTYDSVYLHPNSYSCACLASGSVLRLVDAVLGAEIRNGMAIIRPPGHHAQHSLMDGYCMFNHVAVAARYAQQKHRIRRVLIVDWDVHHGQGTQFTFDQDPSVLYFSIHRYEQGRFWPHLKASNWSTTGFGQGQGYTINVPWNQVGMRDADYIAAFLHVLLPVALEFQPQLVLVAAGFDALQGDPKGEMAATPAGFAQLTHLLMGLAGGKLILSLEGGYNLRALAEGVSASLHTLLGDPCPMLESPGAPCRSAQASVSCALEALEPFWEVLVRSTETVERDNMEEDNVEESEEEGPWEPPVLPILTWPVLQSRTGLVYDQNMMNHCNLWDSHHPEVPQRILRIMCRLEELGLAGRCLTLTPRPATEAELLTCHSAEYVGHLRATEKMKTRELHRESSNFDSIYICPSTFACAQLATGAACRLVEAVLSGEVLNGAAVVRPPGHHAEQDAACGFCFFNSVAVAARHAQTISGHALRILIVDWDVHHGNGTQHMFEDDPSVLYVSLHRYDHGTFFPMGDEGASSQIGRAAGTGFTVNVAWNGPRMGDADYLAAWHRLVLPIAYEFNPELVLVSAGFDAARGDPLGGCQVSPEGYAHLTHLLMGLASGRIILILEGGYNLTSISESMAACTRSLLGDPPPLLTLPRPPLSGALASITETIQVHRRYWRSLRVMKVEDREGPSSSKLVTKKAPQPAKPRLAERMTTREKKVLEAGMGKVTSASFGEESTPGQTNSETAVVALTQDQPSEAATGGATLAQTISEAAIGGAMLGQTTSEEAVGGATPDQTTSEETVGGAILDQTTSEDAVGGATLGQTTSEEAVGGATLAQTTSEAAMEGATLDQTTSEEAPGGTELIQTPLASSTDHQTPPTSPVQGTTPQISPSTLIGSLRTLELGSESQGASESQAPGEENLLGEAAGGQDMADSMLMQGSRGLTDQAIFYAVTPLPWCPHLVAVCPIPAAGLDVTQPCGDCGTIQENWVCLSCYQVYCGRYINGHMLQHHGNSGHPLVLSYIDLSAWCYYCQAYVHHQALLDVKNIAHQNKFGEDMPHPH

K562 = assay: Antiproliferative activity against human K562 cells after 72 hrs by MTT assay; type: functional, cell-based; conditions: K562, 72 h
U-937 [5] = assay: Antiproliferative activity against human U937 cells after 72 hrs by MTT assay; type: functional, cell-based; conditions: U-937, 72 h
U-937 [6] = assay: Induction of apoptosis in human U937 cells assessed as necrotic cells at 2.5 uM after 48 hrs by Annexin V-FITC/PI staining based flow cytometry (reference value: 0%); type: functional
Homo sapiens [7] = species on record: Homo sapiens; assay: Inhibition of HDAC in human U937 cells assessed as induction of histone H3K9 acetylation after 12 hrs by Western blot analysis; type: cell-based
Homo sapiens [8] = species on record: Homo sapiens; assay: Inhibition of HDAC in human U937 cells assessed as induction of histone H4K8 acetylation after 12 hrs by Western blot analysis; type: cell-based
[9] = biological target: DNA (cytosine-5)-methyltransferase 1 (Homo sapiens) (UniProt P26358); assay: Inhibition of DNMT1 in human U937 cells assessed as increase in P16INK4A expression level at 1 to 5 uM after 36 hrs by Western blot analysis; type: cell-based
Homo sapiens [10] = species on record: Homo sapiens; assay: Inhibition of DNMT in human U937 cells assessed as induction of P16 CpG islands demethylation at 1 to 2.5 uM after 36 hrs by PCR analysis; type: cell-based
U-937 [11] = assay: Induction of apoptosis in human U937 cells assessed as increase in cleaved caspase-3 level at 1 to 5 uM after 36 hrs by Western blot analysis; type: functional, cell-based
U-937 [12] = assay: Induction of apoptosis in human U937 cells assessed as increase in cleaved PARP expression at 1 to 5 uM after 36 hrs by Western blot analysis; type: functional, cell-based
U-937 [13] = assay: Induction of apoptosis in human U937 cells assessed as increase in PARP expression at 1 to 5 uM after 36 hrs by Western blot analysis; type: functional, cell-based
U-937 [14] = assay: Induction of apoptosis in human U937 cells assessed as viable cells at 2.5 uM after 48 hrs by Annexin V-FITC/PI staining based flow cytometry (reference value: 99.4%); type: functional; conditions: U-937, 48 h, read-out: Activity
U-937 [15] = assay: Induction of apoptosis in human U937 cells assessed as early apoptotic cells at 2.5 uM after 48 hrs by Annexin V-FITC/PI staining based flow cytometry (reference value: 0.162%); type: functional
U-937 [16] = assay: Induction of apoptosis in human U937 cells assessed as late apoptotic cells at 2.5 uM after 48 hrs by Annexin V-FITC/PI staining based flow cytometry (reference value: 0.438%); type: functional
U-937 [17] = assay: Induction of apoptosis in human U937 cells assessed as viable cells at 5 uM after 48 hrs by Annexin V-FITC/PI staining based flow cytometry (reference value: 99.4%); type: functional; conditions: U-937, 48 h, read-out: Activity
U-937 [18] = assay: Induction of apoptosis in human U937 cells assessed as early apoptotic cells at 5 uM after 48 hrs by Annexin V-FITC/PI staining based flow cytometry (reference value: 0.162%); type: functional
U-937 [19] = assay: Induction of apoptosis in human U937 cells assessed as late apoptotic cells at 5 uM after 48 hrs by Annexin V-FITC/PI staining based flow cytometry (reference value: 0.438%); type: functional
U-937 [20] = assay: Induction of apoptosis in human U937 cells assessed as necrotic cells at 5 uM after 48 hrs by Annexin V-FITC/PI staining based flow cytometry (reference value: 0%); type: functional
U-937 [21] = assay: Induction of apoptosis in human U937 cells assessed as viable cells at 10 uM after 48 hrs by Annexin V-FITC/PI staining based flow cytometry (reference value: 99.4%); type: functional; conditions: U-937, 48 h, read-out: Activity
U-937 [22] = assay: Induction of apoptosis in human U937 cells assessed as early apoptotic cells at 10 uM after 48 hrs by Annexin V-FITC/PI staining based flow cytometry (reference value: 0.162%); type: functional
U-937 [23] = assay: Induction of apoptosis in human U937 cells assessed as late apoptotic cells at 10 uM after 48 hrs by Annexin V-FITC/PI staining based flow cytometry (reference value: 0.438%); type: functional
U-937 [24] = assay: Induction of apoptosis in human U937 cells assessed as necrotic cells at 10 uM after 48 hrs by Annexin V-FITC/PI staining based flow cytometry (reference value: 0%); type: functional
U-937 [25] = assay: Induction of apoptosis in human U937 cells assessed as cell death after 48 hrs by Annexin V-FITC/PI staining based flow cytometry; type: functional
Salmonella typhimurium [26] = assay: Genotoxicity in Salmonella typhimurium TA97 at 50 times IC50 by Ames test; type: toxicity; conditions: salmonella enterica subsp. enterica serovar typhimurium
Salmonella typhimurium [27] = assay: Genotoxicity in Salmonella typhimurium TA98 at 50 times IC50 by Ames test; type: toxicity; conditions: salmonella enterica subsp. enterica serovar typhimurium
Salmonella typhimurium [28] = assay: Genotoxicity in Salmonella typhimurium TA102 at 50 times IC50 by Ames test; type: toxicity; conditions: salmonella enterica subsp. enterica serovar typhimurium
Salmonella typhimurium [29] = assay: Genotoxicity in Salmonella typhimurium TA1535 at 50 times IC50 by Ames test; type: toxicity; conditions: salmonella enterica subsp. enterica serovar typhimurium

DNA (cytosine-5)-methyltransferase 1 (Homo sapiens), sequence (P26358 whole entry): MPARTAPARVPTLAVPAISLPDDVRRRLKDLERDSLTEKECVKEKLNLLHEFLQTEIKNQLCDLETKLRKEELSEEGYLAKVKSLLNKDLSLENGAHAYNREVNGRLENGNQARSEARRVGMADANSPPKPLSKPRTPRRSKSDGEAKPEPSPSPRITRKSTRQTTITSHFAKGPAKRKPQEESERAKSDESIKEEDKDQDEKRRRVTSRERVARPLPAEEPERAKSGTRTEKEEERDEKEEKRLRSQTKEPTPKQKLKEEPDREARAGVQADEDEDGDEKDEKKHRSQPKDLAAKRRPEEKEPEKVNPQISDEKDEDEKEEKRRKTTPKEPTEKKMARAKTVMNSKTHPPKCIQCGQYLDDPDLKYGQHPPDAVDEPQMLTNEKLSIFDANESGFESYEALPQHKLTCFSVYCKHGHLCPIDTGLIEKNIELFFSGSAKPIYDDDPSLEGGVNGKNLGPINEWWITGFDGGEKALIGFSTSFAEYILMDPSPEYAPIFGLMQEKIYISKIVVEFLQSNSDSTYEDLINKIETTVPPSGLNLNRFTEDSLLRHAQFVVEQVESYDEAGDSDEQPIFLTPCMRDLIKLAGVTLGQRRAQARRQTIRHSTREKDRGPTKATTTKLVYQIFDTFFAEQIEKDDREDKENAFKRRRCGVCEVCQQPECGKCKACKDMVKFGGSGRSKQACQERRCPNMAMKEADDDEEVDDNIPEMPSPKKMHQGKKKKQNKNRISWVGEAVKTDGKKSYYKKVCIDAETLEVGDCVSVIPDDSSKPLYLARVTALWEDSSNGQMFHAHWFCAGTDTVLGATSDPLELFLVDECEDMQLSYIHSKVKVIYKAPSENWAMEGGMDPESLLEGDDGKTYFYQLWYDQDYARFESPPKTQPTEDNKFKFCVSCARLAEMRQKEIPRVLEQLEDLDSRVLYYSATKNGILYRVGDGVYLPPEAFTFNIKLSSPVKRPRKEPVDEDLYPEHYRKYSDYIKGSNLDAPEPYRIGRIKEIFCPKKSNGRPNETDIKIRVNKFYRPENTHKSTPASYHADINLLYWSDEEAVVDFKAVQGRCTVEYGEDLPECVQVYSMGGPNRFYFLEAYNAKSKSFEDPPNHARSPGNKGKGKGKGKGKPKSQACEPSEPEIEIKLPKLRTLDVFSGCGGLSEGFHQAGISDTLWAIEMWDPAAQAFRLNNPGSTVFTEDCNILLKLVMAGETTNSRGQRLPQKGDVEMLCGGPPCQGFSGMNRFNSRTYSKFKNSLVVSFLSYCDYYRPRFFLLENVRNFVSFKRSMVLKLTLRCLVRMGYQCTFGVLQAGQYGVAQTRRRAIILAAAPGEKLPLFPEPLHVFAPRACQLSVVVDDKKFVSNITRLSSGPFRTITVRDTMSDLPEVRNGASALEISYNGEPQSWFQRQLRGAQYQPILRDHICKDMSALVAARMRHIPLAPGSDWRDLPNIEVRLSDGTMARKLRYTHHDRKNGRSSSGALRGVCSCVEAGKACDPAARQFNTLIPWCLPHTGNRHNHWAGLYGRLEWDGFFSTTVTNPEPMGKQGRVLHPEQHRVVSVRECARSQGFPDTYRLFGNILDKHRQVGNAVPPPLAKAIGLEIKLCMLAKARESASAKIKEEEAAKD
Histone deacetylase 1, sequence (Q13547 whole entry): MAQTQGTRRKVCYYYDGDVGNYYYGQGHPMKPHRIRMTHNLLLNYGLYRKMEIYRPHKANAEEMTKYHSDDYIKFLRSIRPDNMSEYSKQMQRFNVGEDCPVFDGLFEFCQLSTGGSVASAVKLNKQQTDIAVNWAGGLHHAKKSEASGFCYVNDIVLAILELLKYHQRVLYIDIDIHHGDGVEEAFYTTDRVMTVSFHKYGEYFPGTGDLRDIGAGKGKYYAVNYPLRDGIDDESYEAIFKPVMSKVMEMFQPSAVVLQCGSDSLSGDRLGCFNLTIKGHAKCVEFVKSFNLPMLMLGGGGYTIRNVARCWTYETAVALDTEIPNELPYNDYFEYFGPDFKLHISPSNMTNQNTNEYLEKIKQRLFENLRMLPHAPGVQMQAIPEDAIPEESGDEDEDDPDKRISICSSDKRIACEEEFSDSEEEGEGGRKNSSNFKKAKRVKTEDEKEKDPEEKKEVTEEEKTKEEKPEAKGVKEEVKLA
DNMT3A2/3L complex (Homo sapiens), sequence (Q9UJW3 whole entry, looked up): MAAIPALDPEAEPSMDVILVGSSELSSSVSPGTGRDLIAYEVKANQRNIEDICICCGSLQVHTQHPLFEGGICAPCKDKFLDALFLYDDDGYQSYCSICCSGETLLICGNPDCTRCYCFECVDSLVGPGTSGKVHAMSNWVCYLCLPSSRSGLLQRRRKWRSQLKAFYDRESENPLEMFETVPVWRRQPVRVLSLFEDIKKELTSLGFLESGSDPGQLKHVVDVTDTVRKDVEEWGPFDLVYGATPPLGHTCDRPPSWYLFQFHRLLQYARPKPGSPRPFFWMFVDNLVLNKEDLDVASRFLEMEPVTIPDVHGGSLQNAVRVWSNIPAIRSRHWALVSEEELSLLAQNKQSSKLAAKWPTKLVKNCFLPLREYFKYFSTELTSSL
DNMT3A2/3L complex (Homo sapiens), sequence (Q9Y6K1 whole entry, looked up): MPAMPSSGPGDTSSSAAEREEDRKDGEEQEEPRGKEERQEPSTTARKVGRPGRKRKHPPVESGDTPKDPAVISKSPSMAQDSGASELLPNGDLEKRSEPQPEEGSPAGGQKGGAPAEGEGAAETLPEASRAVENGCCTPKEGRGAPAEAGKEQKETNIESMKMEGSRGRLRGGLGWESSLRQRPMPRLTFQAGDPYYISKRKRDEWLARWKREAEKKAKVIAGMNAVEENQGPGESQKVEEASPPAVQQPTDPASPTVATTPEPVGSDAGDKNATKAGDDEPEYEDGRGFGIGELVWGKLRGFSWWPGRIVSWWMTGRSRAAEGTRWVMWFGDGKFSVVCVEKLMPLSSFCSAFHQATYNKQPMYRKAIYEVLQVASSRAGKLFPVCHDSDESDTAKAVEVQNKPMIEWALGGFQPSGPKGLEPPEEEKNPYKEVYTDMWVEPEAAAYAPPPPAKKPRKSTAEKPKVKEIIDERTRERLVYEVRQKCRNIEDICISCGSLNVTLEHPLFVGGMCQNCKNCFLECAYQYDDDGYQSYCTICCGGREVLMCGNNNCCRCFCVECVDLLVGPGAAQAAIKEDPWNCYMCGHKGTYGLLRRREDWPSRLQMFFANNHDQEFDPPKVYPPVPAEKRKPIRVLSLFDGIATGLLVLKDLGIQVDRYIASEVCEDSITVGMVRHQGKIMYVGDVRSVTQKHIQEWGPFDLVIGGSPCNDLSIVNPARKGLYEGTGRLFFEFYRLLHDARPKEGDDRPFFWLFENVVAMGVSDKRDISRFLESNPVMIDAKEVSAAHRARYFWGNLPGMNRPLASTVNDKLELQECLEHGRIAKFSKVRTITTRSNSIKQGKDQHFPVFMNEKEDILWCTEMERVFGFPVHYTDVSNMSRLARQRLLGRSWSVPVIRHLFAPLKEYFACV
DNMT3B-DNMT3L complex (Homo sapiens), sequence (Q9UJW3 whole entry, looked up, other chains not shown): as the sequence (Q9UJW3 whole entry, looked up) above

SMILES: O=C(/C=C/c1ccc(CCNC(=O)c2cc(C(F)(F)F)ccc2Cl)cc1)NO
- inhibition [1]: 69.9 to 70%
- inhibition [2]: 23 to 23.4%
- inhibition [3]: 48 to 48.5%
- IC50 (Histone deacetylase 1): 56.8 nM
- IC50 [4]: 17.4 nM
- IC50 (K562): 2850 nM
- IC50 (U-937 [5]): 1060 nM
- Activity (U-937 [6]): 0.452%
- inhibition (Homo sapiens [7]): Dose-dependent effect
- inhibition (Homo sapiens [8]): Dose-dependent effect
- inhibition [9]: Active
- inhibition (Homo sapiens [10]): Active
- Activity (U-937 [11]): Active
- Activity (U-937 [12]): Active
- Activity (U-937 [13]): Active
- viability at 2.5 µM (U-937 [14]): 56%
- Activity (U-937 [15]): 12.9%
- Activity (U-937 [16]): 30.7%
- viability at 5 µM (U-937 [17]): 0.725%
- Activity (U-937 [18]): 48.2%
- Activity (U-937 [19]): 50.7%
- Activity (U-937 [20]): 0.384%
- viability at 10 µM (U-937 [21]): 0.784%
- Activity (U-937 [22]): 30.1%
- Activity (U-937 [23]): 68.3%
- Activity (U-937 [24]): 0.846%
- Activity (U-937 [25]): Dose-dependent effect
- Activity (Salmonella typhimurium [26]): Non-Toxic
- Activity (Salmonella typhimurium [27]): Non-Toxic
- Activity (Salmonella typhimurium [28]): Non-Toxic
- Activity (Salmonella typhimurium [29]): Non-Toxic
